Measured values reported in patent US7351855B2, “Chemically defined non-polymeric valency platform molecules and conjugates thereof” (La Jolla Pharmaceutical Company, priority 1993, dated 2008).
No end group written: not given here.

Experiments:
[1] = system: cultured T cell from melittin-immunized mice; test: Murine lymph node proliferation assay ([3H]thymidine uptake); format: cell-based, Balb/c mice; conditions: T cells from mice primed with melittin; 10, 1.0 or 0.1 μg/mL; FIG. 8
Experimental: Femal Balb/c mic (6-8 weeks old; Jackson Laboratory, Bar Harbor, Me.) were obtained and housed at the La Jolla Pharmaceutical animal facility according to National Institutes of Health guidelines. Food and water was provided ad libitum. Balb/c mice were immunized in each hind footpad with 50 μg of melittin molecule in Complete Freund's Adjuvant (CFA) (Sigma Chemical Co., St. Louis, Mo.). Popliteal lymph nodes were harvested aseptically seven days later. Lymph nodes were gently dissociated by teasing the cells through a 50 mesh sieve screen. The single cell suspension was washed in RPMI-1640 (Irvine Scientific, Irvine Calif.) containing glutamine, penicillin and streptomycin. 5×10^5 cells in RPMI medium supplemented with 10% fetal bovine serum (FCS) in quadruplicate wells of round bottom 96-well Corning microtitration plates were-cultured with melittin or a melittin peptide at 10, 1.0 or 0.1 μg/mL. Cells in the positive control wells were cultured with murine interleukin 2 (IL-2) at 100 or 50 U/mL, PHA (phytohemagglutinin) at 1 μg/mL. The negative control wells contained lymph node cells in RPM-1640 and 10% FCS. The cells were cultured for 4 days in a 37° C. incubator with 5% CO2. Each well was pulsed with 1 μCi of [^3H]thymidine (ICN Biochemicals, Costa Mesa, Calif.) for an additional 18 hours. Cells were harvested onto a glass fiber filter mat using a semiautomatic cell harvester (Scatron, Sterling, Va.). Incorporation of [^3H]thymidine was determined by liquid scintillation. The results were expressed as average counts per minute.

peptide-specific pfc = test: pfc assay: melittin peptide-specific IgG pfc in spleens of mice primed and boosted with melittin; format: in vivo, C57BL/6 mice; conditions: Table 7
Experimental: Female C57BL/6 mice, ages 5 to 8 weeks were purchased from The Jackson Laboratory, Bar Harbor, Me. Animals were maintained and treated accordingly to National Institutes of Health guidelines.
Mice were primed by an i.p. injection containing 5 μg of melittin precipitated on alum and 2×10^9 B. pertussis (Michigan Department of Public Health, Lansing, Mich.) as an adjuvant. The mice were boosted with 5 μg of melittin, i.p., in PBS.
Sheep Red Blood Cells (SRBC) (Colorado Serum Co., Denver, Colo.) were conjugated with melittin-peptide […] using carbodiimide. Fresh SRBC (less than 2 weeks old) were washed four times with cold saline and one time with mannitol (0.35 M mannitol, 0.01 M NaCl). The SRBC were suspended in mannitol to a concentration of 10% (v/v). 100 μL of mannitol containing 30 μg of melittin peptide #3 were added to 1 mL aliquots of 10% SRBC which were then incubated on ice for 10 minutes. 100 μL of a 100 mg/mL solution of 1-ethyl-3 (3-dimethylaminopropyl)-carbodiimide HCl (EDCI) was then added and incubated on ice for 30 minutes. The SRBC were washed twice with Balanced Salt Solution (BSS) (Irvine Scientific Co, Irvine, Calif.) and resuspended to 10% (v/v). Lyophilized guinea pig complement (GIBCO, New York, N.Y.) was reconstituted with BSS and then diluted 1:3 with BSS. One mL of the diluted guinea pig complement was added to 3 mL of conjugated SRBC. Rabbit anti-mouse IgG was added to give a final dilution of 1:100 of the rabbit antiserum. This concentration was predetermined to inhibit all IgM pfc while enhancing the maximum number of IgG pfc. An equal volume of this complement/anti-mouse IgG/SRBC suspension was mixed with a cell suspension of mouse spleen cells taken from a single mouse. 50 μL of each mixture was transferred to the chambers of a Cunningham slide (three chambers per slide). The edges were then sealed with paraffin and incubated at 37° C. for one hour. The number of plaques per chamber was counted with the aid of a dissecting microscope. Each spleen suspension was also assayed using non-conjugated SRBC as a control. The number of viable cells, in each spleen cell suspension, was determined. The number of pfc per 10^6 spleen cells was determined for each chamber and the mean of the triplicates calculated. The number of pfc for non-conjugated SRBC was subtracted from the number of pfc for conjugated SRBC to determine the number of peptide-specific pfc.
Two different tolerogens were constructed to determine if the orientation of the peptide on the PEG conjugate affects its ability to induce tolerance. The peptide was covalently bound to valency platform molecule 3 through its C-terminal end to make melittin conjugate 3. Groups (3/group) of mice primed with melittin were treated, i.p., with conjugates or with saline. Five days later all of the mice, including the non-treated control group, were boosted with […] of melittin. Six days later the mice were sacrificed, their spleens were harvested and the number of peptide specific pfc determined. As-illustrated in Table 8, both orientations were effective in reducing the number of peptide-specific pfc/10^6 spleen cells in mice primed and boosted with the parent protein Melittin.
Three different conjugates, each with a different number of peptides per PEG conjugate, were constructed to determine if the ratio of peptides to PEG molecule was important. Conjugate 1 had only two peptides per PEG conjugate. Another had four peptides per PEG conjugate (Conjugate 2). The third had eight peptides per PEG conjugate (Conjugate 5). Groups (3/group) of mice primed with melittin were treated, i.p., with the different conjugates or with saline. Five days later all of the nice, including the non-treated control group, were boosted with 5 μg of melittin. Six days later, the mice were sacrificed, their spleens were harvested and the number of peptide-specific pfc determined.

Compound | T cell proliferation (in words) [1] | other results
CC[C@H](C)[C@H](NC(=O)CN)C(=O)NCC(=O)N[C@@H](C)C(=O)N[C@H](C(=O)N[C@@H](CC(C)C)C(=O)N[C@@H](CCCCN)C(=O)N[C@H](C(=O)N[C@@H](CC(C)C)C(=O)N[C@H](C(=O)N[C@H](C(=O)NCC(=O)N[C@@H](CC(C)C)C(=O)N1CCC[C@H]1C(=O)N[C@@H](C)C(=O)N[C@@H](CC(C)C)C(=O)N[C@H](C(=O)N[C@@H](CO)C(=O)N[C@@H](Cc1c[nH]c2ccccc12)C(=O)N[C@H](C(=O)N[C@@H](CCCCN)C(=O)N[C@@H](CCCNC(=N)N)C(=O)N[C@@H](CCCCN)C(=O)N[C@@H](CCCNC(=N)N)C(=O)N[C@@H](CCC(N)=O)C(=O)N[C@@H](CCC(N)=O)C(N)=O)[C@@H](C)CC)[C@@H](C)CC)[C@@H](C)O)[C@@H](C)O)C(C)C)C(C)C [Melittin, reference compound] | showed T cell proliferation | 
Cys-Ile-Ser-Trp-Ile-Lys-Arg-Lys-Arg-Gln-Gln-Gly (CISWIKRKRQQG; printed: Cys-Ile-Ser-Trp-Ile-Lys-Arg-Lys-Arg-Gln-Gln-Gly) [Melittin Peptide #5] | showed T cell proliferation | 
IKRKRQQG [Melittin Peptide #1] | no significant T cell proliferation | 
Ile-Ser-Trp-Ile-Lys-Arg-Lys-Arg-Gln-Gln-Gly (ISWIKRKRQQG; printed: Ile-Ser-Trp-Ile-Lys-Arg-Lys-Arg-Gln-Gln-Gly) [Melittin Peptide #4] | showed T cell proliferation | 
N,N′-Bis-(3,5-bis-(iodoacetamido)benzoyl) derivative of α,ω-bis-(N-2-aminoethylcarbamoyl)polyethyleneglycol [Compound 3] |  | % Reduction (peptide-specific pfc; 250 μg/mouse i.p.): 67.3%; Peptide specific pfc per 10^6 spleen cells (Mean and S.D.) (peptide-specific pfc; 250 μg/mouse i.p.): 957 (298) pfc per 10^6 spleen cells; % Reduction (peptide-specific pfc; 500 μg/mouse i.p.): 83.3%; Peptide specific pfc per 10^6 spleen cells (Mean and S.D.) (peptide-specific pfc; 500 μg/mouse i.p.): 489 (one mouse) pfc per 10^6 spleen cells; % Reduction (peptide-specific pfc; 1000 μg/mouse i.p.): 86.8%; Peptide specific pfc per 10^6 spleen cells (Mean and S.D.) (peptide-specific pfc; 1000 μg/mouse i.p., boost 5 days later, spleens 6 days after boost): 386 (85) pfc per 10^6 spleen cells
SWIKRKRQQG [Melittin Peptide #3] | showed T cell proliferation | 
WIKRKRQQG [Melittin Peptide #2] | no significant T cell proliferation | 
